Measurements reported in article PMC10826971, “Evaluating protein cross-linking as a therapeutic strategy to stabilize SOD1 variants in a mouse model of familial ALS” (PLOS Biology, 2024).

Tests used:
SOD1 = SOD1 (Homo sapiens, UniProt P00441); assay type: binding
Method: A computational search was performed in PubChem to identify all compounds containing a cyclic disulfide motif. […] Of these, 69 compounds cross-linked SOD1 with a wide array of reaction rates. Only 2 compounds could cross-link 100% of SOD1 during the assay, including one 5-membered cyclic disulfide (4-Amino-1,2-Dithiolane-4-Carboxylic Acid) and one 6-membered cyclic thiosulfinate (1,2-dithiane 1-oxide).

transthyretin = settings: only approved drug with a kinetic stabilizing mechanism; cited from earlier work

Sequence of SOD1 (P00441 2-154 limits assumed): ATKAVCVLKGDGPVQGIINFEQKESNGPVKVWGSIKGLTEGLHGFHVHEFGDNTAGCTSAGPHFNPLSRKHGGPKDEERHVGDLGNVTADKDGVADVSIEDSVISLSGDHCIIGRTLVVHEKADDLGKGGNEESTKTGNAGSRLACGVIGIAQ

SOD1 cross-linked during the assay (SOD1) [%] | Structure (SMILES) | increase in thermal stability (transthyretin) [°C]
100 | NC1(C(=O)O)CSSC1 [4-Amino-1,2-Dithiolane-4-Carboxylic Acid] | 
 | O=C(O)c1ccc2nc(-c3cc(Cl)cc(Cl)c3)oc2c1 [tafamidis] | 6
